Assay [1] has as its target T1, SARS-CoV-2 3CL^pro (Severe acute respiratory syndrome coronavirus 2, UniProt P0DTD1). Briefly: biochemical. To be noted: for inhibition at 50 µM: read-out: % Inhibition at 50 μM, 50 μM compound; for % Inhibition at 50 μM: 50 μM compound.
The subject of assay [2] is SARS-CoV. To be noted: cited from earlier work.
Assay [3] has as its target T1, SARS-CoV-2 3CL^pro. In kind it is biochemical.
The test system of assay [4] is SARS-CoV-2 (C-Tan-nCoV Wuhan strain 01). The experiment in a line: microbe, parasite or virus in culture. In kind it is cell-based.
The target in assay [5] is SARS-CoV 3CL^pro (Severe acute respiratory syndrome coronavirus, UniProt P0C6X7). In kind it is biochemical.

`O=C(O)[C@H]1O[C@@H](Oc2cc3oc(-c4ccccc4)cc(=O)c3c(O)c2O)[C@H](O)[C@@H](O)[C@@H]1O` [Baicalin]: in assay [1], the inhibition (commonly the drop in the measured response relative to a control, in per cent) at 50 µM is roughly 41%. Regarding `O=c1c(O)c(-c2cc(O)c(O)c(O)c2)oc2cc(O)cc(O)c12` [Myricetin], the inhibition at 50 µM in assay [1] was 30.8 ± 4.6%. Besides, the “inhibition of SARS-CoV” value in assay [2] was “reported to inhibit”.

As to `O=c1cc(-c2ccccc2)oc2cc(O)cc(O)c12` [Chrysin], the inhibition at 50 µM in assay [1] was 2.6 ± 1.1%. On the same count and under the same terms, under `O=c1cc(-c2ccccc2)oc2cc(O)c(O)cc12` [6,7-Dihydroxyflavone] stands 56.7 ± 2%. `O=c1cc(-c2ccccc2)oc2cc(O)c(O)c(O)c12` [Baicalein]: the “anti-SARS-CoV-2 3CLpro activity in cell lysate” value in assay [3] was “showed inhibition activity”. For the same molecule, the “inhibition activity at the post-entry stage” value in assay [4] is on record as “mainly active”. Further, in assay [4] (Severe acute respiratory syndrome coronavirus 2, Vero, 48 h), the EC50 (in general, the concentration needed to bring the measured effect to its halfway point) came to 2900 nM. Besides, in assay [5], the “inhibition of SARS-CoV 3CLpro activity” value was “inhibit”. For `O=C(O)[C@H]1O[C@@H](Oc2cc3oc(-c4ccc(O)cc4)cc(=O)c3c(O)c2O)[C@H](O)[C@@H](O)[C@@H]1O` [Scutellarin], the “% Inhibition at 50 μM” value in assay [1] (50 µM) is reported as “mild inhibitory activity”. Besides, the inhibition at 50 µM in assay [1] was determined as 28.9 ± 1.6%. On to `O=c1cc(-c2ccccc2)oc2ccc(O)c(O)c12` [5,6-Dihydroxyflavone], for which, in assay [1], the inhibition at 50 µM worked out at 26.6 ± 0.4%. Turning to `O=c1c(O)c(-c2ccc(O)cc2)oc2c(O)c(O)cc(O)c12` [Herbacetin], the inhibition at 50 µM in assay [1] was determined as 59.1 ± 1.9%. Take `COc1c(O)cc(O)c2c(=O)cc(-c3ccccc3)oc12` [Wogonin]: in assay [1], the “% Inhibition at 50 μM” value is “not active” and the inhibition at 50 µM was 6.1 ± 0.8%.

Regarding `O=c1cc(-c2ccc(O)cc2)oc2cc(O)c(O)c(O)c12` [Scutellarein], the “inhibition of SARS-CoV” value in assay [2] is listed as “reported to inhibit”.

The record behind these values is paper PMC7850424 (Journal of Enzyme Inhibition and Medicinal Chemistry, 2021).
